Where two headings read alike, the source gives them in different places.
Experiments:
human alpha-thrombin [1] = molecular target: T1, human alpha-thrombin (Homo sapiens, UniProt P00734); conditions: Table 4, human alpha-thrombin
Experimental: Enzyme activity was determined using the chromogenic substrate Pefachrome t-PA (CH3 SO2 -D-hexahydrotyrosine-glycyl-L-Arginine-p-nitroanilide), obtained from Pentapharm Ltd. The substrate was reconstituted in deionized water prior to use. Purified human alpha-thrombin (3000U/mg specific activity) was obtained from Enzyme Research Laboratories, Inc. The buffer used for all assays was HBSA (10 mM HEPES, pH 7.5, 150 mM sodium chloride, 0.1%, bovine serum albumin).
Velocities of chromogenic substrate hydrolysis which occurred over 40 min was measured by the change in absorbance at 405 nm using a Thermo Max® Kinetic Microplate Reader. […] The extent of substrate hydrolysis was less than 5% over the course of this assay.

[2] = tested on: FeCl3-induced occlusive thrombus in rat carotid artery; assay: Rat model of FeCl3-induced platelet-dependent arterial thrombosis; format: in vivo; conditions: for Incidence of Occlusion: single intravenous bolus 5 minutes before FeCl3, n = 6, 60 minutes, saline 6/6; for ED50: Rattus norvegicus, read-out: ED50 for thrombus prevention in the FeCl3 model of arterial thrombosis
Text: Kurz, K. D., Main, B. W., and Sandusky, G. E., Thromb. […] In this model a platelet-rich, occlusive thrombus is formed in a segment of the rat carotid artery treated locally with a fresh solution of FeCl3 absorbed to a piece of filter paper. The FeCl3 is thought to diffuse into the treated segment of artery and causes de-endothelialization of the affected vessel surface. […] The effect of a test compound on the incidence of occlusive thrombus formation following the application of the FeCl3 is monitored by ultrasonic flowtometry and is used as the primary end point. The use of flowtometry to measure carotid artery blood flow, is a modification of the original procedure in which thermal detection of clot formation was employed. Kurz, K. D., Main, B. W., and Sandusky, G. E., Thromb.
The animals were prepared, anesthetized with Nembutal followed by the insertion of catheters for blood pressure monitoring, drug and anesthesia delivery. The left carotid artery was isolated by making a midline cervical incision followed by blunt dissection and spreading techniques to separate a 2 cm segment of the vessel from the carotid sheath. A silk suture is inserted under the proximal and distal ends of the isolated vessel to provide clearance for the placement of a ultrasonic flow probe (Transonic) around the proximal end of the vessel. The probe is then secured with a stationary arm.
Following surgery the animals were randomized in either a control (saline) or treatment group with test compound (Isomer B) with at least 6 animals per group per dose. The test compound was administered as a single intravenous bolus at the doses outlined in Table 3 after placement of the flow probe and 5 minutes prior to the thrombogenic stimulus. […] Blood pressure, blood flow, heart rate, and respiration were monitored for 60 minutes.
The incidence of occlusion (defined as the attainment of zero blood flow) was recorded as the primary end point and as a measure of the antithrombotic efficacy of Isomer B.

[3] = tested on: human plasma clotting (APTT); assay: Ex vivo anticoagulant effect, APTT in citrated human plasma
Text: (§1) The control clotting times (0 inhibitor) for rat and human plasma were 19 seconds and 29 seconds, respectively. The concentration of BzlSO2 -norVal(cyclo)-Gly-Ala(3-guanPip)al which caused a doubling of the control clotting time in rat and human plasma was 12.7 micromolar and 9.1 micromolar, respectively. The data is the mean of two independent determinations.
(§2) Fresh frozen citrated pooled normal human plasma was obtained from George King Biomedical, Overland Park, Kans. Pooled normal rat plasma was prepared from citrated whole blood collected from anesthetized rats using standard procedures. The plasma was flash frozen and stored at -80° C. until use. Measurements APTT was made using the Coag-A-Mate RA4 automated coagulometer (General Diagnostics, Organon Technica, Oklahoma City, Okla.) using the Automated APTT reagent (Organon Technica, Durham, N.C.) as the initiator of clotting according to the manufacturers instructions. The assay was conducted by making a series of dilution's of Isomer B in rapidly thawed plasma followed by adding 200 microliters to the wells of the assay carousel.

human alpha-thrombin [4] = molecular target: T1, human alpha-thrombin; assay: biochemical
Experimental: The buffer used for all assays was HBSA (10 mM HEPES, pH 7.5, 150 mM sodium chloride, 0.1% bovine serum albumin). […] Following a 30-minute incubation at ambient temperature, 50 microliters of the substrate at the concentrations specified below, was added to the wells yielding a final total volume of 200 microliters. The initial velocity of chromogenic substrate hydrolysis was measured by the change in absorbance at 405nm using a Thermo Max® Kinetic Microplate Reader over a 5 minute period in which less than 5% of the added substrate was utilized.
Thrombin catalytic activity was determined using the chromogenic substrate Pefachrome t-PA (CH3 SO2 -D-hexahydrotyrosine-glycyl-L-arginine-p-nitroanilide, obtained from Pentapharm Ltd.). The substrate was made up in deionized water followed by dilution in HBSA prior to the assay in which the final concentration was 300 micromolar (about 5-times Km). Purified human alpha-thrombin was obtained from Enzyme Research Laboratories, Inc. The enzyme was diluted into HBSA prior to the assay in which the final concentration was 0.25 nM.

plasmin = plasmin (Homo sapiens, UniProt P00747); assay: Plasmin assay (specificity determination); format: biochemical; conditions: maximal concentration 25,000 nM, mean of at least two independent experiments
Experimental: Plasmin catalytic activity was determined using the chromogenic substrate, S-2251 [D-valyl-L-leucyl-L-lysine-p-nitroanilide], which was obtained from Kabi Diagnostica.

[5] = tested on: rat plasma clotting (APTT); assay: Ex vivo anticoagulant effect, APTT in citrated rat plasma
Text: as §1, §2

thrombin = conditions: literature; cited from earlier work
[6] = literature; cited from earlier work
[7] = literature; cited from earlier work; remark: listed apart in the source

Chain of plasmin (P00747 581-810 limits assumed): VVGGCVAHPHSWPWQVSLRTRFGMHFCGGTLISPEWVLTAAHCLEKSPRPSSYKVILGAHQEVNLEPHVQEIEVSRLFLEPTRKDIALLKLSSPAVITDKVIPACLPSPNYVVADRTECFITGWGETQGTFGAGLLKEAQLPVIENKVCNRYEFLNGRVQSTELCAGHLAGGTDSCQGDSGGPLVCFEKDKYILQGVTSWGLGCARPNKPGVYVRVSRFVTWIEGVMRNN
Chain of plasmin (P00747 97-580 limits assumed): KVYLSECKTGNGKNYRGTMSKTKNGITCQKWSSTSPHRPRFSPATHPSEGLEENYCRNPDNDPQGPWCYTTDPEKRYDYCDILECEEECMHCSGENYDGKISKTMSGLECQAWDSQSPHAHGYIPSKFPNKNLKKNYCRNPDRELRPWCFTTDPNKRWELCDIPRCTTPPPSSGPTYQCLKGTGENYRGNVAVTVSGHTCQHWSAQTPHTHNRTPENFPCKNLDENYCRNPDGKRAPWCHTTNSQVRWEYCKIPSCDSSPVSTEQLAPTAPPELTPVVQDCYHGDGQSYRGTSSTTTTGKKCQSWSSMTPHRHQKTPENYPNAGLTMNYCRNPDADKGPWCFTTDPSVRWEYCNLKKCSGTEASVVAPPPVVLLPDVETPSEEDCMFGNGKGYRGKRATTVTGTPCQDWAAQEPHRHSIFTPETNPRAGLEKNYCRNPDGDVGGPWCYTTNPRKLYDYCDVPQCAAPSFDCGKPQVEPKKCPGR

SMILES: N=C(N)N1CCCC(C[C@@H](C=O)NC(=O)CN2CCC[C@H](NS(=O)(=O)Cc3ccccc3)C2=O)C1 (single isomer, unassigned) [Isomer B]
- Ki (human alpha-thrombin [1]): 0.318 nM
- Incidence of Occlusion ([2]; 0.3 mg/kg): 6/6
- Incidence of Occlusion ([2]; 1.0 mg/kg): 4/6
- Incidence of Occlusion ([2]; 3.0 mg/kg, p ≤ 0.05 from saline control by Fishers test): 0/6
- ED50 [2]: 1.4 mg/kg
- concentration which caused a doubling of the control clotting time (APTT) ([3]; citrated human plasma, control clotting time 29 seconds, mean of two independent determinations): 9.1 µM
- prolongation of the APTT ([3]; human plasma): prolonged the APTT in a dose dependent manner
- IC50 (human alpha-thrombin [4]): 0.9 nM
- IC50 (plasmin): > 25000 nM
- prolongation of the APTT [5]: prolonged the APTT in a dose dependent manner

SMILES: N=C(N)c1ccc(CC(=O)C(=O)O)cc1 [APPA, 4-amidinophenylpyruvic acid]
- selectivity of thrombin inhibition (thrombin): non-selective, inhibiting trypsin, plasmin and kallikrein
- pharmacokinetics [6]: favourable pharmacokinetics
- toxicity [7]: low toxicity

SMILES: CC1CNc2c(cccc2S(=O)(=O)N[C@@H](CCCNC(=N)N)C(=O)N2CC[C@@H](C)C[C@@H]2C(=O)O)C1 (stereo partly drawn) [Argatroban, 2R,4R-4-methyl-1-[N-2-(3-methyl-1,2,3,4-tetrahydro-8-quinolinesulfonyl)-L-argininal]-2-piperdinecarboxylic acid, reference compound]
- ED50 ([2]; dose that prevents complete thrombotic occlusion in 50% of animals tested): 3.8 mg/kg

SMILES: CS(=O)(=O)O.CS(=O)(=O)O.N=C(N)Nc1ccc(C(=O)Oc2ccc3cc(C(=N)N)ccc3c2)cc1 [FUT 175, 6-amidino-2-naphthyl-4-guanidinobenzoate dimethanesulfonate]
- selectivity of thrombin inhibition (thrombin): non-selective

Source: patent US5714499A, “3-amino-2-oxo-1-piperidineacetic derivatives containing an arginine mimic as enzyme inhibitors” (Corvas International, Inc., priority 1994, dated 1998)
